{
  "source": "patent US7115624B1",
  "about": "“Method of inhibiting protein tyrosine phosphatase 1B and/or T-cell protein tyrosine phosphatase 4 and/or other PTPases with an Asp residue at position 48” (Novo Nordisk A/S, priority 1999, dated 2006)",
  "type_in_all_cases": "biochemical",
  "key": {"PTP1B": {"target": "T1, PTP1B (Homo sapiens, UniProt P18031)", "T1 sequence (P18031 1-321)": "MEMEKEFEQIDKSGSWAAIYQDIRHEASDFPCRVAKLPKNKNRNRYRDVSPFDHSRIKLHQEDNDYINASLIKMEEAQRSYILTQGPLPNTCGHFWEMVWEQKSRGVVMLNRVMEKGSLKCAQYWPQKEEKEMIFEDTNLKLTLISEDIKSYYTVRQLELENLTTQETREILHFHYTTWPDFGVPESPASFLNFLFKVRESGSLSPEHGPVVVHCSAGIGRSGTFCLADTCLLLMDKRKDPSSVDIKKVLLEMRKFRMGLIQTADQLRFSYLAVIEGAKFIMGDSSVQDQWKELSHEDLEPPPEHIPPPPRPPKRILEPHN", "assay": "PTPase inhibition, p-nitrophenyl phosphate substrate, Ki", "conditions": "pH 7.0; wt (Table 4); read-out: Ki values, PTP1B wt", "quoted_text": "(§3) The assay conditions are as follows. Appropriate concentrations of the compounds of the invention (e.g., 0.1 to 100 μM) are added to the reaction mixtures containing different concentrations of the substrate, p-nitrophenyl phosphate (range: 0.16 to 10 mM—final assay concentration). The buffer used was 50 mM HEPES pH 7.0, 100 mM sodium chloride, 0.1% (w/v) bovine serum albumin, 5 mM glutathione, and 1 mM EDTA. The reaction was started by addition of the enzyme and carried out in microtiter plates at 25° C. for 60 minutes. The reactions are stopped by addition of NaOH. […] The data are analyzed using nonlinear regression fit to classical Michaelis Menten enzyme kinetic models. Inhibition is expressed as Ki values in μM."}, "CD45": {"target": "T2, CD45 (Homo sapiens, UniProt P08575)", "T2 sequence (P08575 599-1306 limits assumed)": "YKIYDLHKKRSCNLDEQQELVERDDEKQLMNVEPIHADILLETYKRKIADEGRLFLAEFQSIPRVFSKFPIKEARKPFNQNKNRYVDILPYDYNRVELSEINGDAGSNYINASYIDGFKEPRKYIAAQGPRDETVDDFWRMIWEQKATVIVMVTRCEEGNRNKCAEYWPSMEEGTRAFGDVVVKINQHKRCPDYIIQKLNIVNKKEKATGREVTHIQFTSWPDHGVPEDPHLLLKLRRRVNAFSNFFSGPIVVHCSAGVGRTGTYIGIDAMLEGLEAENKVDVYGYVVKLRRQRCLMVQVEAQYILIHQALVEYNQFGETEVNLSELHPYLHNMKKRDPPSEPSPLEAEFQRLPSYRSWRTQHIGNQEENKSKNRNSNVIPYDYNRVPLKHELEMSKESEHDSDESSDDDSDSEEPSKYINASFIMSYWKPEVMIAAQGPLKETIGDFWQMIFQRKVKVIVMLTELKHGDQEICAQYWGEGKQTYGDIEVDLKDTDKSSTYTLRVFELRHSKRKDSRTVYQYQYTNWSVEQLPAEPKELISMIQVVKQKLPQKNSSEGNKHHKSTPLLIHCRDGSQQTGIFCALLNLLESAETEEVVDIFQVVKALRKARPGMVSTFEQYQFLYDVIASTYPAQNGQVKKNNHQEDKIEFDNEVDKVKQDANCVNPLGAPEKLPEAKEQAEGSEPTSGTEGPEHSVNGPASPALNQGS", "assay": "PTPase inhibition, p-nitrophenyl phosphate substrate, Ki", "conditions": "pH 7.0 (Table 5); read-out: Ki values, CD45", "quoted_text": "as §3"}, "GLEPP1": {"target": "T3, GLEPP1 (Homo sapiens, UniProt Q16827)", "T3 sequence (Q16827 938-1195 limits assumed)": "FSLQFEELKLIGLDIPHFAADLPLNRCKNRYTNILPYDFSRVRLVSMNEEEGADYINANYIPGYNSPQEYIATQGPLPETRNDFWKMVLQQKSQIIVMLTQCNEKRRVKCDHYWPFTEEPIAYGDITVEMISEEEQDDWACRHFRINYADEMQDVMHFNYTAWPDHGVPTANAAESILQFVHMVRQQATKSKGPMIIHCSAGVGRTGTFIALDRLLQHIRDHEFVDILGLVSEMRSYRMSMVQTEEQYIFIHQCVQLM", "assay": "PTPase inhibition, p-nitrophenyl phosphate substrate, Ki", "conditions": "pH 7.0 (Table 5)", "description": "(§1) Specificity against a broad set of PTPs—It was next analyzed if the side chain of NNC 52–1153 would cause the increased selectivity against other PTPs. NNC 52–1153 was tested against a set of 10 different wt PTP domains (Table 5). It appears from this table that a substantial increase in affinity for PTP1B and TC-PTP has been obtained, while at the same time introducing a very high degree of selectivity against many other PTPs representing a broad spectrum of this class of enzymes (having Asp 48).\n(§2) The assay conditions are as follows."}, "TC-PTP": {"target": "T4, TC-PTP (Homo sapiens, UniProt P17706)", "T4 sequence (P17706 5-275 limits assumed)": "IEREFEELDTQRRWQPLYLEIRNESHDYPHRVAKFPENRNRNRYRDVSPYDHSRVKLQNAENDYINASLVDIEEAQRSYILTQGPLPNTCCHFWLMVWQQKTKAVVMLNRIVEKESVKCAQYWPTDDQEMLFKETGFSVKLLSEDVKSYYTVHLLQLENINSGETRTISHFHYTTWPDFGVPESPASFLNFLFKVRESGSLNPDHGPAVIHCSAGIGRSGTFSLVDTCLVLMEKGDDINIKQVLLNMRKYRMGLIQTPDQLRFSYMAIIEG", "assay": "PTPase inhibition, p-nitrophenyl phosphate substrate, Ki", "conditions": "pH 7.0 (Table 5)", "description": "as §1, §2"}, "PTPH1 M259G": {"target": "T5, PTPH1 M259G (Homo sapiens, UniProt P26045, M883G)", "T5 sequence (P26045 628-913 M883G limits assumed)": "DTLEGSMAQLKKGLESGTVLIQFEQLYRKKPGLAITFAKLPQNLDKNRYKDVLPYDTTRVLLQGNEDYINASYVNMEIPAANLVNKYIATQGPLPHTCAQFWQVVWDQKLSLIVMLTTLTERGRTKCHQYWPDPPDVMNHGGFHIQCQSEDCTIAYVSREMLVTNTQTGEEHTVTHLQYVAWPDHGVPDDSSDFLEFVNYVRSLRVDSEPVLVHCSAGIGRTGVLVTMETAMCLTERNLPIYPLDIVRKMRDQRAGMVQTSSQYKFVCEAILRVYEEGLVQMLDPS", "assay": "Enzyme kinetic analysis with mutant PTPs, Ki", "conditions": "pH 7.0", "from_the_text": "To test directly, whether the above compound was addressing the proposed region of PTP1B, Compound N was subjected to detailed enzyme kinetic analyses using a set of wildtype (wt) and mutant PTPs. Two enzymes, PTPα and PTPH1, were chosen as representatives for PTPs with bulky side chains in the 259 position. Using a combination of wt and PTP mutants it has previously been shown that Gln259 in PTPα, in addition to its direct effect, also indirectly influences the binding of inhibitors and substrates, most likely due to a negative influence on the rotational freedom of the side chain of Gln262 (Peters et al., J. Biol. Chem. 275: 18201–18209 (2000)). As described above, selectivity can be obtained by introducing a basic nitrogen into 2-(oxalylamino)-4,5,6,7-tetrahydrobenzo[b]thiophene-3-carboxylic acid that causes attraction in PTP1B due to salt bridge formation to Asp48 and repulsion against PTPs with an asparagine in the 48 position, such as PTPα. To analyze if the current approach based on steric hindrance is generally applicable, it was decided to include a PTP with an aspartic acid in position 48. PTPH1, which like PTP1B is an intracellular enzyme with one domain only, was selected for these studies. The results of these studies are shown below (Table 4).\nas §2"}},
  "data": [
    {"compound": "O=C(O)C(=O)Nc1sc2c(c1C(=O)O)CCOC2COC1=NS(=O)(=O)c2ccccc21", "note": "(centres unmarked) [Compound N, 7-(1,1-dioxo-1H-benzo[d]isothiazol-3-yloxymethyl)-2-(oxalyl-amino)-4,7-dihyd ro-5H-thieno[2,3-c]pyran-3-carboxylic acid]", "values": [
      {"measurement": "Ki", "setting": "PTP1B", "result": 0.4, "unit": "µM"},
      {"measurement": "Ki", "setting": "CD45", "result": 500, "unit": "µM"},
      {"measurement": "Ki", "setting": "GLEPP1", "result": 150, "unit": "µM"},
      {"measurement": "Ki", "setting": "TC-PTP", "result": 0.6, "unit": "µM"},
      {"measurement": "Ki", "setting": "PTPH1 M259G", "result": 12, "unit": "µM"}
    ]}
  ]
}
